Reference: patent US20230027929A1, “MrgprX2 Antagonists and Uses Thereof” (Dermira, Inc., priority 2019, published 2023)

Each molecule was assayed against T1, hMrgpMRGPRX2 (Homo sapiens, UniProt Q96LB1) (assay: FLIPR intracellular calcium mobilization, antagonist activity in recombinant hMrgpMRGPRX2 expressing cells). Conditions: read-out: Human MrgprX2 Antagonist pIC50 (converted).
T1 construct: expressed in transfected cells
T1 sequence (Q96LB1 1-330): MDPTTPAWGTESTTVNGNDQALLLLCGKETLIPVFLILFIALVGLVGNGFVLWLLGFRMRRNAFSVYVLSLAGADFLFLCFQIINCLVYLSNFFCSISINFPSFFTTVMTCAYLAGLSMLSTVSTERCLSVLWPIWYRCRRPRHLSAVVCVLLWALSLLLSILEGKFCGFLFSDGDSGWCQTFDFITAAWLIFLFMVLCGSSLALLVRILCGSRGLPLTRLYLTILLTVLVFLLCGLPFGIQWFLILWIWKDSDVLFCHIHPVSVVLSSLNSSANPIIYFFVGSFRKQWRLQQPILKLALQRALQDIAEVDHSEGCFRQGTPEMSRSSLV
Assay type: cell-based
Text: Potent and selective hMrgpMRGPRX2 compounds have been generated from compounds identified during a high throughput screening (HTS) campaign and followed up with cycles of structure activity based medicinal chemistry efforts. These compounds were characterized in recombinant hMrgpMRGPRX2 expressing cells for their antagonist activity and the potency was confirmed in the human mast cell line LAD-2, where the target is endogenously expressed. The assays used to determine potencies are functional read-out looking at intracellular calcium mobilization using the FLIPR™ technology. In these FLIPR assays, we test the identified compounds using recombinant cellular systems expressing mouse MrgprB2, mouse MrgprA1, gerbil MrgpMRGPRX2 orthologue, Chinese hamster MrgpMRGPRX2 orthologue and cynomolgus monkey MrgpMRGPRX2 orthologue, respectively for orthologue activity.
`CC1(C)C(C(=O)Nc2ccc(N3CCC(O)C3)cn2)C1(C)C` (stereo not shown) [Compound E070] was tested, and the IC50 was 1050 nM.
In the case of `CCN(C[C@@H](O)C(F)(F)F)C(=O)Nc1ccc(Oc2cccc(C#N)c2F)cn1` [Compound E134], the IC50 is reported as 468 nM.
In the case of `CC1(C)C(C(=O)Nc2ccc(C3CCOC3)cn2)C1(C)C` (stereo not shown) [Compound E186], the IC50 is reported as 186 nM.
For `C[C@@H]1C[C@@H]1C(=O)Nc1ccc(Oc2ccc(F)c(F)c2)cn1` [Compound E048], the IC50 was 15.8 nM.
Work on `COc1cnc(NC(=O)C2C(C)(C)C2(C)C)cn1` [Compound E215] yielded an IC50 of 200 nM.
`CC1(C)C(C(=O)Nc2ccc(Oc3cc(F)cc(C#N)c3)cn2)C1(C)C` [Compound E042] was tested, and the IC50 was 3.16 nM.
Work on `CC1(C)C(C(=O)Nc2ccc(Oc3cccnc3)cn2)C1(C)C` [Compound E066] yielded an IC50 of 30.9 nM.
`CC1(C(=O)Nc2ccc(Oc3ccc(F)c(F)c3)cn2)CCOC1` (stereo not shown) [Compound E036] showed an IC50 of 5010 nM.
`COc1ccccc1-c1ccc(NC(=O)C(C)C)nc1` [Compound E169] was tested, and the IC50 was 2000 nM.
Work on `CC1(C)CCC1C(=O)Nc1ccc(Oc2ccc(F)c(F)c2)cn1` (stereo not shown) [Compound E062] yielded an IC50 of 10 nM.
`CCN(C[C@@H](O)C(F)(F)F)C(=O)Nc1cnc(Oc2c(F)cccc2F)cn1` [Compound E244] gave an IC50 of 26.9 nM.
With `CC1(C)C(C(=O)Nc2cc(C#N)ccn2)C1(C)C` [Compound E207] the IC50 was 3160 nM.
Work on `CC(C)C(=O)Nc1ccc(-c2cc(F)cc(F)c2)cn1` [Compound E173] yielded an IC50 of 31.6 nM.
`CC1(C)C(C(=O)Nc2ccc(-n3cncn3)cn2)C1(C)C` [Compound E092] gave an IC50 of 8130 nM.
In the case of `O=C(Nc1ccc(-c2cc(F)cc(F)c2)cn1)C1CC1` [Compound E179], the IC50 is reported as 200 nM.
In the case of `CCN(C[C@@H](O)C(F)(F)F)C(=O)Nc1ccc(Oc2cccc(F)c2)cn1` [Compound E119], the IC50 is reported as 12.3 nM.
For `CC1(C)CC1C(=O)Nc1ccc(-c2cccc(F)c2F)cn1` (stereo not shown) [Compound E183], the IC50 was 19.5 nM.
`CCN(C[C@@H](O)C(F)(F)F)C(=O)Nc1cnc(Oc2cc(F)cc(F)c2)c(C)n1` [Compound E242] showed an IC50 of 7410 nM.
In the case of `O=C(Nc1ccc(Oc2cc(F)cc(F)c2)cn1)N1CC[C@@H](CO)C1` [Compound E130], the IC50 is reported as 7080 nM.
Molecule `CCN(C[C@@H](O)C(F)(F)F)C(=O)Nc1ccc(Oc2cccc(F)c2F)cn1` [Compound E120] has an IC50 of 3.72 nM.
For `CC1(C)C(C(=O)Nc2ccc(Oc3cc(F)cc(C(N)=O)c3)cn2)C1(C)C` [Compound E075], the IC50 was 501 nM.
`CC1(C)C(C(=O)Nc2ccc(-c3ncon3)cn2)C1(C)C` [Compound E271, 2,2,3,3-tetramethyl-N-[5-(1,2,4-oxadiazol-3-yl)-2-pyridyl]cyclopropanecarboxamide] showed an IC50 of 31.6 nM.
Molecule `CC1(C)C(C(=O)Nc2ccc(Oc3ccc(C(N)=O)nc3)cn2)C1(C)C` [Compound E076] has an IC50 of 1260 nM.
`CC1(C)C(C(=O)Nc2cnc(-c3cc(F)cc(F)c3)cn2)C1(C)C` [Compound E227] showed an IC50 of 33.9 nM.
`CCN(C[C@@H](O)C(F)(F)F)C(=O)Nc1cnc(Oc2cc(F)cc(F)c2)cn1` [Compound E236] was tested, and the IC50 was 31.6 nM.
`CC1(C)CC1C(=O)Nc1cc(Cl)ccn1` (stereo not shown) [Compound E208] was tested, and the IC50 was 3160 nM.
For `CC(C)C(=O)Nc1ccc(Oc2cncc(F)c2)cn1` [Compound E051], the IC50 was 3980 nM.
With `CC1(C)CC1C(=O)Nc1cnc(Oc2cc(F)cc(F)c2)cn1` (stereo not shown) [Compound E219] the IC50 was 25.1 nM.
`CC(C)C(=O)Nc1cnc(Oc2ccccc2)cn1` [Compound E217, 2-methyl-N-(5-phenoxypyrazin-2-yl)propanamide] showed an IC50 of 7940 nM.
For `CCN(C[C@@H](O)C(F)(F)F)S(=O)(=O)Nc1ccc(Oc2ccc(F)c(F)c2)cn1` [Compound E286, 5-(3,4-difluorophenoxy)-2-[[ethyl-[(2R)-3,3,3-trifluoro-2-hydroxy-propyl]sulfamoyl]amino]pyridine], the IC50 was 2290 nM.
`CC1(C)C(C(=O)Nc2ccc(F)cn2)C1(C)C` [Compound E211] was tested, and the IC50 was 1.26 nM.
Work on `CCN(CC(O)C(F)(F)F)C(=O)Nc1ccc(Oc2cccc(F)c2)cn1` (stereo not shown) [Compound E127] yielded an IC50 of 15.8 nM.
For `CC1(C)C(C(=O)Nc2ccc(-c3ccno3)cn2)C1(C)C` [Compound E274, N-(5-isoxazol-5-yl-2-pyridyl)-2,2,3,3-tetramethyl-cyclopropanecarboxamide], the IC50 was 20.4 nM.
With `CN(C[C@H](O)C(F)(F)F)C(=O)Nc1ccc(Oc2ccc(F)c(F)c2)cn1` [Compound E113] the IC50 was 575 nM.
In the case of `CCN(C[C@@H](O)C(F)(F)F)C(=O)Nc1ccc(Oc2ccc(C#N)cc2)cn1` [Compound E115], the IC50 is reported as 8910 nM.
In the case of `CC1(C)C(C(=O)Nc2cc(C(F)(F)F)ccn2)C1(C)C` [Compound E203], the IC50 is reported as 1580 nM.
`CC(C)C(=O)Nc1ccc(Oc2ccc(F)c(F)c2)cn1` [Compound E010] was tested, and the IC50 was 39.8 nM.
Work on `CC1(C)CC1C(=O)Nc1ccc(Oc2cncc(F)c2)cn1` (stereo not shown) [Compound E052] yielded an IC50 of 501 nM.
Work on `CC1(C)CC1C(=O)Nc1ccc(Oc2ccc(C#N)cc2)cn1` (stereo not shown) [Compound E057] yielded an IC50 of 1260 nM.
Molecule `CC1(C)CN(C(=O)Nc2ccc(Oc3ccc(F)c(F)c3)cn2)C1` [Compound E124] has an IC50 of 3240 nM.
For `CC1(C)C(C(=O)Nc2cc(OCC(F)(F)F)ccn2)C1(C)C` [Compound E149, 2,2,3,3-tetramethyl-N-[4-(2,2,2-trifluoroethoxy)-2-pyridyl]cyclopropanecarboxamide], the IC50 was 2000 nM.
`CC1(C)CC(C(=O)Nc2ccc(Oc3ccc(F)c(F)c3)cn2)C1` [Compound E059] showed an IC50 of 200 nM.
With `CC(C)N(C)C(=O)Nc1cnc(Oc2cc(F)cc(F)c2)cn1` [Compound E234, 3-[5-(3,5-difluorophenoxy)pyrazin-2-yl]-1-isopropyl-1-methyl-urea] the IC50 was 631 nM.
In the case of `CCN(C[C@@H](O)C(F)(F)F)C(=O)Nc1cc(Oc2ccc(F)c(F)c2)ccn1` [Compound E150, 3-[4-(3,4-difluorophenoxy)-2-pyridyl]-1-ethyl-1-[(2R)-3,3,3-trifluoro-2-hydroxy-propyl]urea], the IC50 is reported as 3.47 nM.
Work on `CCN(C[C@@H](O)C(F)(F)F)C(=O)Nc1ccc(Oc2c(F)cccc2F)cn1` [Compound E135] yielded an IC50 of 8.13 nM.
Work on `CC(C)C(=O)Nc1cc(-c2ccccc2)ccn1` [Compound E168] yielded an IC50 of 7940 nM.
In the case of `C[C@H](O)CN(C)C(=O)Nc1ccc(-c2cc(F)cc(F)c2)cn1` [Compound E191, 3-[5-(3,5-difluorophenyl)-2-pyridyl]-1-[(2S)-2-hydroxypropyl]-1-methyl-urea], the IC50 is reported as 2510 nM.
`CC(C)C(=O)Nc1ccc(OC2CCCC2)cn1` [Compound E084] was tested, and the IC50 was 1580 nM.
`CC1(C)CC1C(=O)Nc1ccc(Oc2ccc(F)c(F)c2)cn1` (stereo not shown) [Compound E029] showed an IC50 of 3.98 nM.
`CCN(C[C@@H](O)C(F)(F)F)C(=O)Nc1cc(Oc2ccc(F)c(F)c2)ncn1` [Compound E289, 3-[6-(3,4-difluorophenoxy)pyrimidin-4-yl]-1-ethyl-1-[(2R)-3,3,3-trifluoro-2-hydroxy-propyl]urea] showed an IC50 of 724 nM.
`CCN(C[C@@H](O)C(F)(F)F)C(=O)Nc1cnc(Oc2cccc(C#N)c2F)cn1` [Compound E246] showed an IC50 of 2140 nM.
`CN1CCC[C@@H]1C(=O)Nc1ccc(Oc2ccc(F)c(F)c2)cn1` [Compound E278, (2R)-N-[5-(3,4-difluorophenoxy)-2-pyridyl]-1-methyl-pyrrolidine-2-carboxamide] was tested, and the IC50 was 2630 nM.
In the case of `CC(C)(F)C(=O)Nc1ccc(Oc2ccc(F)c(F)c2)cn1` [Compound E035], the IC50 is reported as 398 nM.
`CC1(C)C(C(=O)Nc2ccc(-n3nccn3)cn2)C1(C)C` [Compound E089] gave an IC50 of 15.1 nM.
With `CCN(C[C@@H](O)C(F)(F)F)C(=O)Nc1cnc(Oc2ccc(F)cc2C(F)(F)F)cn1` [Compound E264] the IC50 was 295 nM.
`O=C(Nc1ccc(Oc2cc(F)cc(F)c2)cn1)C1CC1` [Compound E017] gave an IC50 of 79.4 nM.
Work on `CC(C)(C#N)C(=O)Nc1ccc(Oc2cccc(F)c2)cn1` [Compound E001, 2-cyano-N-[5-(3-fluorophenoxy)-2-pyridyl]-2-methyl-propanamide] yielded an IC50 of 398 nM.
In the case of `CC1(C)C(C(=O)Nc2ccc(-c3cncc(F)c3)cn2)C1(C)C` [Compound E184], the IC50 is reported as 70.8 nM.
With `CCN(C[C@@H](O)C(F)(F)F)C(=O)Nc1cnc(Oc2ccc(F)cc2F)cn1` [Compound E249] the IC50 was 1.62 nM.
In the case of `NS(=O)(=O)N1CCC[C@H]1C(=O)Nc1ccc(Oc2cc(F)cc(F)c2)cn1` [Compound E283], the IC50 is reported as 562 nM.
`CCN(C[C@@H](O)C(F)(F)F)C(=O)Nc1ccc(Oc2c(F)cccc2C#N)cn1` [Compound E136] showed an IC50 of 158 nM.
In the case of `CC1(C)CC1C(=O)Nc1ccc(-c2cc(F)cc(C#N)c2)cn1` (stereo not shown) [Compound E188], the IC50 is reported as 50.1 nM.
In the case of `CC1(C)C(C(=O)Nc2ccc(I)cn2)C1(C)C` [Compound E200, N-(5-iodo-2-pyridyl)-2,2,3,3-tetramethyl-cyclopropanecarboxamide], the IC50 is reported as 14.8 nM.
`CCN(C[C@@H](O)C(F)(F)F)C(=O)Nc1cc(Oc2ccccc2F)ncn1` [Compound E290, 1-ethyl-3-[6-(2-fluorophenoxy)pyrimidin-4-yl]-1-[(2R)-3,3,3-trifluoro-2-hydroxy-propyl]urea] gave an IC50 of 692 nM.
In the case of `CC1(C)C(C(=O)Nc2cnc(N3CCCC3)cn2)C1(C)C` [Compound E233, 2,2,3,3-tetramethyl-N-(5-pyrrolidin-1-ylpyrazin-2-yl)cyclopropanecarboxamide], the IC50 is reported as 331 nM.
`CC(C)NC(=O)Nc1ccc(Oc2ccc(F)c(F)c2)cn1` [Compound E107] gave an IC50 of 6310 nM.
`CCN(C[C@@H](O)C(F)(F)F)C(=O)Nc1cc(Oc2ccccc2C#N)ccn1` [Compound E158] showed an IC50 of 17.8 nM.
